Reference: patent US20230310496A1, “COMPOSITIONS AND METHODS FOR PREVENTING AND/OR AM[…]-[…] AUTOIMMUNE DISEASES” (MiZ Company Limited, priority 2022, published 2023)
Read-outs that look alike come from different tables or passages of the source.

Legend:
myasthenia gravis = assay: Course of myasthenia gravis under drugs before inhalation of hydrogen gas (Example 1); type: in vivo, human; conditions: Tacrolimus 3 mg/day, Mestinon 60 mg × 3/day
Protocol: The course from onset is as follows:
Aug. 26, 2021: upper lip paralysis occurred. […] Since the patient was positive on an ice pack test and a Tensilon test, they were diagnosed as myasthenia gravis. No abnormality was found in a CT test. As a result of a blood test, the patient was false positive to an anti-acetylcholine antibody and prescribed an immunosuppressant (Tacrolimus 3 mg/day). […] The patient could not read letters on a newspaper, raise a frying pan or write letters, and their chewing power reduced.
Sep. 9, 2021: the patient consulted the doctor because of worsening of symptoms and prescribed an anticholinesterase agent (Mestinon 60 mg × 3/day). […] Every day after 3 p.m. or later, the patient felt that their arms are unbearably heavy. Since the arms cannot be removed, the patient spent time with the arms kept on a table.
Sep. 25, 2021: since symptoms were not improved and merely got worse, the patient changed their primary doctor to a neuroimmunology specialist doctor and hospitalization was considered.
Sep. 29, 2021: an immunosuppressant (1 mg) was additionally prescribed by the neuroimmunology specialist doctor; that is, immunosuppressants (Tacrolimus 3 mg/day, Prograf 1 mg/day) were prescribed. The patient avoided hospitalization but was followed up as an outpatient. […] Based on the result, the patient was definitively diagnosed as anti-MuSK antibody positive myasthenia gravis. […]

Hashimoto's disease = conditions: MHG-2000α, hydrogen about 5% to 7%
[1] = human, in vivo
[2] = system: anti-MuSK antibody positive myasthenia gravis; conditions: for relapse after use of the immunosuppressants was stopped: only hydrogen gas inhalation continued since Mar. 30, 2022, supplemental hydrogen water
Protocol: Patient: person at the time of onset. The course from onset is as follows:
Jan. […] (Kamakura city, Kanagawa prefecture, Japan).
Aug. 24, 2022: medical examination was carried out at the Department of Neurology in the Juntendo University Hospital.

With `CN(C)C(=O)Oc1ccc[n+](C)c1` [Mestinon] the “symptoms of myasthenia gravis under the drug” value (myasthenia gravis) was “their symptoms further got worse”.
With `C=CC[C@@H]1/C=C(\C)C[C@H](C)C[C@H](OC)[C@H]2O[C@@](O)(C(=O)C(=O)N3CCCC[C@H]3C(=O)O[C@H](/C(C)=C/[C@@H]3CC[C@@H](O)[C@H](OC)C3)[C@H](C)[C@@H](O)CC1=O)[C@H](C)C[C@@H]2OC` [Tacrolimus] the “symptoms of myasthenia gravis under the drug” value (myasthenia gravis) was “the symptoms progressed”.
For `[HH]` [hydrogen gas, hydrogen], the fatigue (Hashimoto's disease) was “felt less fatigued”, the “visual field (dark visual field)” value (Hashimoto's disease) was “recovered from darkness and became bright” and the “side effects of hydrogen itself” value [1] was “not found”. The “languor of the arm” value ([2]; Day 5 after initiation of inhalation, Jobs-α, hydrogen about 4% to 5%, Jan. 28, 2022) was “completely gone”, the “constipation, a side effect of the immunosuppressants” value ([2]; Feb. 1, 2022, inhalation started Jan. 23, 2022) was “overcome” and the “blemishes on their face” value ([2]; Feb. 16, 2022) was “became light”. For the same compound, the “symptoms of myasthenia gravis” value ([2]; Mar. 20, 2022) was “no longer observed”, the “body feeling when inhaling hydrogen gas” value ([2]; Mar. 22, 2022) was “the body gets lighter” and the “state of myasthenia gravis as told by the doctor” value ([2]; Oct. 19, 2022) was “not in remission but in healed state”. The “face turning red after drinking alcohol (side effect of the drugs)” value ([2]; after inhalation of hydrogen, Feb. 1, 2022) was “their face never turned red”, the “number of red blood cells” value ([2]; blood test Mar. 9, 2022, under hydrogen inhalation, normal 3.8 to 5.04) was 4.22 10^12/L and the hematocrit ([2]; blood test Mar. 9, 2022, under hydrogen inhalation, normal 35.6 to 45.4) was 40.7%. For the same compound, the anti-MuSK antibody ([2]; medical examination Aug. 24, 2022) was “negative”, the “relapse after use of the immunosuppressants was stopped” value [2] was “no relapse occurred” and the “relapse after use of the immunosuppressants was stopped” value ([2]; listed as hydrogen) was “no relapse has taken place”.
